Reference: patent publication US4731451A, “N-((2-oxo-3(2H)benzothiazolyl)methyl)-2-chloroacetanilides” (Monsanto Company, priority 1980, dated 1988)

Columns and labels:
Type in all cases: in vivo
Barnyardgrass [1] = test: Pre-emergent herbicidal activity (Table II); conditions: 2-3 weeks
In short: (§1)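 Pans of top soil were seeded, then topped with soil thoroughly mixed with the test compound; plants grew in the greenhouse with watering from below. After approximately 2-3 weeks, injury to each species was assessed.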

Canada Thistle = test: Pre-emergent herbicidal activity (Table II); conditions: 2-3 weeks
In short: as §1

Cocklebur [2] = test: Pre-emergent herbicidal activity (Table II); conditions: 2-3 weeks
In short: as §1

Downy Brome [3] = test: Pre-emergent herbicidal activity (Table II); conditions: 2-3 weeks
In short: as §1

Johnsongrass = test: Pre-emergent herbicidal activity (Table II); conditions: 2-3 weeks
In short: as §1

Lambsquarters [4] = test: Pre-emergent herbicidal activity (Table II); conditions: 2-3 weeks
In short: as §1

Morningglory [5] = test: Pre-emergent herbicidal activity (Table II); conditions: 2-3 weeks
In short: as §1

Quackgrass = test: Pre-emergent herbicidal activity (Table II); conditions: 2-3 weeks
In short: as §1

Smartweed [6] = test: Pre-emergent herbicidal activity (Table II); conditions: 2-3 weeks
In short: as §1

Velvetleaf [7] = test: Pre-emergent herbicidal activity (Table II); conditions: 2-3 weeks
In short: as §1

Yellow Nutsedge = test: Pre-emergent herbicidal activity (Table II); conditions: 2-3 weeks
In short: as §1

Barnyardgrass [8] = test: Pre-emergent herbicidal activity (Table III)
Experimental: (§2) The pre-emergence tests are conducted as follows:
(§3) A good grade of top soil is placed in aluminum pans and compacted to a depth of three-eighths to one-half inch from the top of the pan. On the top of the soil is placed a predetermined number of seeds or vegetative propagules of various plant species. The soil required to level fill the pans after seeding or adding vegetative propagules is weighed into a pan. A known amount of the active ingredient applied in a solvent or as a wettable powder suspension and the soil are thoroughly mixed, and used as a cover layer for prepared pans. After treatment, the pans are moved into a greenhouse bench where they are watered from below as needed to give adequate moisture for germination and growth.
(§4) Approximately 2-3 weeks after seeding and treating, the plants are observed and the results recorded. The herbicidal rating is obtained by means of fixed scale based on the percent injury of each plant species. The ratings are defined as follows: […]
(§5) The compounds were further tested by utilizing the above procedure on the following plant species: […]

Cocklebur [9] = test: Pre-emergent herbicidal activity (Table III)
Experimental: as §2, §3, §4, §5

Crabgrass = test: Pre-emergent herbicidal activity (Table III)
Experimental: as §2, §3, §4, §5

Downy Brome [10] = test: Pre-emergent herbicidal activity (Table III)
Experimental: as §2, §3, §4, §5

Hemp Sesbania = test: Pre-emergent herbicidal activity (Table III)
Experimental: as §2, §3, §4, §5

Lambsquarters [11] = test: Pre-emergent herbicidal activity (Table III)
Experimental: as §2, §3, §4, §5

Morningglory [12] = test: Pre-emergent herbicidal activity (Table III)
Experimental: as §2, §3, §4, §5

Panicum = test: Pre-emergent herbicidal activity (Table III)
Experimental: as §2, §3, §4, §5

Rice = test: Pre-emergent herbicidal activity (Table III)
Experimental: as §2, §3, §4, §5

Smartweed [13] = test: Pre-emergent herbicidal activity (Table III)
Experimental: as §2, §3, §4, §5

Sorghum = test: Pre-emergent herbicidal activity (Table III)
Experimental: as §2, §3, §4, §5

Soybean = test: Pre-emergent herbicidal activity (Table III)
Experimental: as §2, §3, §4, §5

Sugarbeet = test: Pre-emergent herbicidal activity (Table III)
Experimental: as §2, §3, §4, §5

Velvetleaf [14] = test: Pre-emergent herbicidal activity (Table III)
Experimental: as §2, §3, §4, §5

Wheat = test: Pre-emergent herbicidal activity (Table III)
Experimental: as §2, §3, §4, §5

Wild Buckwheat = test: Pre-emergent herbicidal activity (Table III)
Experimental: as §2, §3, §4, §5
Also: ranges in brackets are in %.

SMILES: CC1=C(N(Cn2c(=O)sc3ccccc32)C(=O)CCl)CCCC1 [Example 10, N--[(2-oxo-3(2H)--benzothiazolyl)methyl]-N--(2-methyl-1-cyclohexen-1-yl)-2-chloro-amide]
- Herbicidal rating (Barnyardgrass [1]; 5.6 kg/ha): 3 (75-100)
- Herbicidal rating (Barnyardgrass [1]; 11.2 kg/ha): 3 (75-100)
- Herbicidal rating (Canada Thistle; 5.6 kg/ha): 0 (0-24)
- Herbicidal rating (Canada Thistle; 11.2 kg/ha): 0 (0-24)
- Herbicidal rating (Cocklebur [2]; 5.6 kg/ha): 0 (0-24)
- Herbicidal rating (Cocklebur [2]; 11.2 kg/ha): 0 (0-24)
- Herbicidal rating (Downy Brome [3]; 5.6 kg/ha): 3 (75-100)
- Herbicidal rating (Downy Brome [3]; 11.2 kg/ha): 3 (75-100)
- Herbicidal rating (Johnsongrass; 5.6 kg/ha): 0 (0-24)
- Herbicidal rating (Johnsongrass; 11.2 kg/ha): 0 (0-24)
- Herbicidal rating (Lambsquarters [4]; 5.6 kg/ha): 0 (0-24)
- Herbicidal rating (Lambsquarters [4]; 11.2 kg/ha): 0 (0-24)
- Herbicidal rating (Morningglory [5]; 5.6 kg/ha): 3 (75-100)
- Herbicidal rating (Morningglory [5]; 11.2 kg/ha): 1 (25-49)
- Herbicidal rating (Quackgrass; 5.6 kg/ha): 3 (75-100)
- Herbicidal rating (Quackgrass; 11.2 kg/ha): 0 (0-24)
- Herbicidal rating (Smartweed [6]; 5.6 kg/ha): 0 (0-24)
- Herbicidal rating (Smartweed [6]; 11.2 kg/ha): 0 (0-24)
- Herbicidal rating (Velvetleaf [7]; 5.6 kg/ha): 0 (0-24)
- Herbicidal rating (Velvetleaf [7]; 11.2 kg/ha): 0 (0-24)
- Herbicidal rating (Yellow Nutsedge; 5.6 kg/ha): 1 (25-49)
- Herbicidal rating (Yellow Nutsedge; 11.2 kg/ha): 1 (25-49)
- Herbicidal rating (Barnyardgrass [8]; 0.056 kg/ha): 3 (75-100)
- Herbicidal rating (Barnyardgrass [8]; 0.28 kg/ha): 3 (75-100)
- Herbicidal rating (Barnyardgrass [8]; 1.12 kg/ha): 2 (50-74)
- Herbicidal rating (Barnyardgrass [8]; 5.6 kg/ha): 3 (75-100)
- Herbicidal rating (Cocklebur [9]; 0.056 kg/ha): 0 (0-24)
- Herbicidal rating (Cocklebur [9]; 0.28 kg/ha): 0 (0-24)
- Herbicidal rating (Cocklebur [9]; 1.12 kg/ha): 0 (0-24)
- Herbicidal rating (Cocklebur [9]; 5.6 kg/ha): 0 (0-24)
- Herbicidal rating (Crabgrass; 0.056 kg/ha): 3 (75-100)
- Herbicidal rating (Crabgrass; 0.28 kg/ha): 3 (75-100)
- Herbicidal rating (Crabgrass; 1.12 kg/ha): 3 (75-100)
- Herbicidal rating (Crabgrass; 5.6 kg/ha): 3 (75-100)
- Herbicidal rating (Downy Brome [10]; 0.056 kg/ha): 0 (0-24)
- Herbicidal rating (Downy Brome [10]; 0.28 kg/ha): 0 (0-24)
- Herbicidal rating (Downy Brome [10]; 1.12 kg/ha): 0 (0-24)
- Herbicidal rating (Downy Brome [10]; 5.6 kg/ha): 2 (50-74)
- Herbicidal rating (Hemp Sesbania; 0.056 kg/ha): 0 (0-24)
- Herbicidal rating (Hemp Sesbania; 0.28 kg/ha): 0 (0-24)
- Herbicidal rating (Hemp Sesbania; 1.12 kg/ha): 0 (0-24)
- Herbicidal rating (Hemp Sesbania; 5.6 kg/ha): 0 (0-24)
- Herbicidal rating (Lambsquarters [11]; 0.056 kg/ha): 1 (25-49)
- Herbicidal rating (Lambsquarters [11]; 0.28 kg/ha): 0 (0-24)
- Herbicidal rating (Lambsquarters [11]; 1.12 kg/ha): 1 (25-49)
- Herbicidal rating (Lambsquarters [11]; 5.6 kg/ha): 3 (75-100)
- Herbicidal rating (Morningglory [12]; 0.056 kg/ha): 0 (0-24)
- Herbicidal rating (Morningglory [12]; 0.28 kg/ha): 0 (0-24)
- Herbicidal rating (Morningglory [12]; 1.12 kg/ha): 0 (0-24)
- Herbicidal rating (Morningglory [12]; 5.6 kg/ha): 0 (0-24)
- Herbicidal rating (Panicum; 0.056 kg/ha): 0 (0-24)
- Herbicidal rating (Panicum; 0.28 kg/ha): 0 (0-24)
- Herbicidal rating (Panicum; 1.12 kg/ha): 0 (0-24)
- Herbicidal rating (Panicum; 5.6 kg/ha): 2 (50-74)
- Herbicidal rating (Rice; 0.056 kg/ha): 0 (0-24)
- Herbicidal rating (Rice; 0.28 kg/ha): 0 (0-24)
- Herbicidal rating (Rice; 1.12 kg/ha): 0 (0-24)
- Herbicidal rating (Rice; 5.6 kg/ha): 3 (75-100)
- Herbicidal rating (Smartweed [13]; 0.056 kg/ha): 0 (0-24)
- Herbicidal rating (Smartweed [13]; 0.28 kg/ha): 0 (0-24)
- Herbicidal rating (Smartweed [13]; 1.12 kg/ha): 1 (25-49)
- Herbicidal rating (Smartweed [13]; 5.6 kg/ha): 2 (50-74)
- Herbicidal rating (Sorghum; 0.056 kg/ha): 0 (0-24)
- Herbicidal rating (Sorghum; 0.28 kg/ha): 0 (0-24)
- Herbicidal rating (Sorghum; 1.12 kg/ha): 0 (0-24)
- Herbicidal rating (Sorghum; 5.6 kg/ha): 0 (0-24)
- Herbicidal rating (Soybean; 0.056 kg/ha): 0 (0-24)
- Herbicidal rating (Soybean; 0.28 kg/ha): 0 (0-24)
- Herbicidal rating (Soybean; 1.12 kg/ha): 0 (0-24)
- Herbicidal rating (Soybean; 5.6 kg/ha): 0 (0-24)
- Herbicidal rating (Sugarbeet; 0.056 kg/ha): 0 (0-24)
- Herbicidal rating (Sugarbeet; 0.28 kg/ha): 0 (0-24)
- Herbicidal rating (Sugarbeet; 1.12 kg/ha): 0 (0-24)
- Herbicidal rating (Sugarbeet; 5.6 kg/ha): 0 (0-24)
- Herbicidal rating (Velvetleaf [14]; 0.056 kg/ha): 0 (0-24)
- Herbicidal rating (Velvetleaf [14]; 0.28 kg/ha): 0 (0-24)
- Herbicidal rating (Velvetleaf [14]; 1.12 kg/ha): 0 (0-24)
- Herbicidal rating (Velvetleaf [14]; 5.6 kg/ha): 0 (0-24)
- Herbicidal rating (Wheat; 0.056 kg/ha): 0 (0-24)
- Herbicidal rating (Wheat; 0.28 kg/ha): 0 (0-24)
- Herbicidal rating (Wheat; 1.12 kg/ha): 0 (0-24)
- Herbicidal rating (Wheat; 5.6 kg/ha): 1 (25-49)
- Herbicidal rating (Wild Buckwheat; 0.056 kg/ha): 0 (0-24)
- Herbicidal rating (Wild Buckwheat; 0.28 kg/ha): 0 (0-24)
- Herbicidal rating (Wild Buckwheat; 1.12 kg/ha): 0 (0-24)
- Herbicidal rating (Wild Buckwheat; 5.6 kg/ha): 0 (0-24)
